Assay results from ChEMBL document CHEMBL1149018, “Cytotoxic and antitumor activity of vismiones isolated from vismieae” (J Nat Prod, 1986).
Values after ≈ are worked out from the molar mass of the structure shown.

Key:
P388 [1] = assay: Cytotoxicity against mouse doxorubicin-sensitive P388 cells after 3 days; format: functional; details: P388, 72 h, read-out: ID50 (the source's name)
P388 [2] = assay: Cytotoxicity against mouse doxorubicin-resistant P388 cells after 3 days; format: functional; details: P388, 72 h, read-out: ID50 (the source's name)
[3] = Cytotoxicity against human 9KB cells after 3 days; format: functional; details: 72 h, read-out: ID50 (the source's name)
B16 [4] = assay: Antitumor activity in mouse B16 cells xenografted in BDF1 mouse at 2.50 mg/kg, ip administered from day 1 to 5 after transplantation; format: functional; details: dose 2.5 mg/kg; route intraperitoneal
Mus musculus [5] = assay: Toxicity in mouse B16 cells xenografted in BDF1 mouse at 10 mg/kg, ip administered from day 1 to 5 after transplantation; format: organism-based; design: dose 10 mg/kg, route intraperitoneal; details: in vivo
B16 [6] = assay: Antitumor activity in mouse B16 cells xenografted in BDF1 mouse at 5 mg/kg, ip administered from day 1 to 5 after transplantation; format: functional; details: route intraperitoneal
M5076 [7] = assay: Antitumor activity in mouse M5076 cells xenografted in BDF1 mouse at 1.25 mg/kg, ip administered from day 1 to 9 after transplantation; format: functional; details: route intraperitoneal
M5076 [8] = assay: Antitumor activity in mouse M5076 cells xenografted in BDF1 mouse at 5 mg/kg, ip administered from day 1 to 9 after transplantation; format: functional; details: route intraperitoneal
Mus musculus [9] = assay: Toxicity in mouse M5076 cells xenografted in BDF1 mouse at 10 mg/kg, ip administered from day 1 to 9 after transplantation; format: organism-based; design: dose 10 mg/kg, route intraperitoneal; details: in vivo
B16 [10] = assay: Antitumor activity in mouse B16 cells xenografted in BDF1 mouse at 0.62 mg/kg, ip administered from day 1 to 5 after transplantation; format: functional; details: route intraperitoneal
B16 [11] = assay: Antitumor activity in mouse B16 cells xenografted in BDF1 mouse at 1.25 mg/kg, ip administered from day 1 to 5 after transplantation; format: functional; details: route intraperitoneal
M5076 [12] = assay: Antitumor activity in mouse M5076 cells xenografted in BDF1 mouse at 0.31 mg/kg, ip administered from day 1 to 9 after transplantation; format: functional; details: route intraperitoneal
M5076 [13] = assay: Antitumor activity in mouse M5076 cells xenografted in BDF1 mouse at 0.63 mg/kg, ip administered from day 1 to 9 after transplantation; format: functional; details: route intraperitoneal
M5076 [14] = assay: Antitumor activity in mouse M5076 cells xenografted in BDF1 mouse at 2.50 mg/kg, ip administered from day 1 to 9 after transplantation; format: functional; details: dose 2.5 mg/kg; route intraperitoneal

| SMILES | IC50 (P388 [1]) [µg/mL] | IC50 (P388 [2]) [µg/mL] | IC50 [3] [µg/mL] | also measured |
| --- | --- | --- | --- | --- |
| COc1cc2cc3c(c(O)c2c2c1C=CC(C)(C)O2)C(=O)CC(C)(OC(C)=O)C3 (stereo unspecified) [ACETYLVISMIONE B] | 5 (≈ 12.6 µM) | 2 (≈ 5.04 µM) | 42 (≈ 106 µM) |  |
| CC(=O)OC1(C)CC(=O)c2c(cc3cc(OC/C=C(\C)CCC=C(C)C)cc(O)c3c2O)C1 (stereo unspecified) [ACETYLVISMIONE D] | 1.8 (≈ 3.98 µM) |  | 5 (≈ 11 µM) |  |
| CC(=O)OC1(C)CC(=O)c2c(cc3cc(O)c(C/C=C(\C)CCC=C(C)C)c(O)c3c2O)C1 (stereo unspecified) [ACETYLVISMIONE F] | 2.7 (≈ 5.97 µM) | 3 (≈ 6.63 µM) | 1 (≈ 2.21 µM) |  |
| COc1cc2cc3c(c(O)c2c(O)c1/C=C/C(C)C)C(=O)CC(C)(O)C3 (stereo unspecified) [DEACETYLVISMIONE A] | 0.4 (≈ 1.12 µM) | 0.3 (≈ 0.842 µM) | 0.7 (≈ 1.96 µM) |  |
| COc1cccc2c1C(=O)c1c(O)c3c(c(O)c1C2=O)C[C@@](O)(C(=O)CO)C[C@@H]3O[C@H]1C[C@H](N)[C@H](O)[C@H](C)O1 [DOXORUBICIN] | 0.0055 (≈ 0.0101 µM) | 0.5 (≈ 0.92 µM) | 0.2 (≈ 0.368 µM) |  |
| COc1cc2cc3c(c(O)c2c(O)c1/C=C/C(C)C)C(=O)CC(C)(OC(C)=O)C3 (stereo unspecified) [VISMIONE A] | 0.45 (≈ 1.13 µM) | 1.1 (≈ 2.76 µM) | 0.25 (≈ 0.627 µM) | T/C (B16 [4]): 115%; T/C (Mus musculus [5]): Toxic; T/C (B16 [6]): 148%; T/C (M5076 [7]): 119%; T/C (M5076 [8]): 145%; T/C (Mus musculus [9]): Toxic; T/C (B16 [10]): 98%; T/C (B16 [11]): 112%; T/C (M5076 [12]): 111%; T/C (M5076 [13]): 115%; T/C (M5076 [14]): 140% |
| COc1cc2cc3c(c(O)c2c2c1C=CC(C)(C)O2)C(=O)CC(C)(O)C3 (stereo unspecified) [VISMIONE B] | 10 (≈ 28.2 µM) | 3 (≈ 8.46 µM) | 10 (≈ 28.2 µM) |  |
| CC(=O)OC1(C)CC(=O)c2c(cc3cc(O)c(CC=C(C)C)c(O)c3c2O)C1 (stereo unspecified) [VISMIONE C] |  |  | 2.1 (≈ 5.46 µM) |  |
| CC(C)=CCC/C(C)=C/COc1cc(O)c2c(O)c3c(cc2c1)CC(C)(O)CC3=O (stereo unspecified) [VISMIONE D] | 14 (≈ 34.1 µM) | 18 (≈ 43.8 µM) | 14 (≈ 34.1 µM) |  |
| CC(C)=CCC/C(C)=C/Cc1c(O)cc2cc3c(c(O)c2c1O)C(=O)CC(C)(O)C3 (stereo unspecified) [VISMIONE F] | 2 (≈ 4.87 µM) | 13.5 (≈ 32.9 µM) | 2.8 (≈ 6.82 µM) |  |
| CC(=O)OC1(C)CC(=O)c2c(c(C/C=C(\C)CCC=C(C)C)c3cc(O)cc(O)c3c2O)C1 (stereo unspecified) [VISMIONE G] | 30 (≈ 66.3 µM) | 30 (≈ 66.3 µM) | 3.2 (≈ 7.07 µM) |  |
